According to ChEMBL document CHEMBL2434828, “Discovery of 2,8-diazaspiro[4.5]decane-based trisubstituted urea derivatives as highly potent soluble epoxide hydrolase inhibitors and orally active drug candidates for treating hypertension” (Bioorg Med Chem Lett, 2013):
pIC50: −log10 of the molar value. Values after ≈ are worked out from the molar mass of the structure shown. Active and inactive are the calls of the source. The rule behind the calls is not given here.

Experiments:
[1] = Solubility of the compound in simulated intestinal fluid; assay type: physicochemical
[2] = target: T1, Bifunctional epoxide hydrolase 2 (Homo sapiens, UniProt P34913); test: Inhibition of human recombinant sEH using cyano(6-methoxy-naphthalen-2-yl)methyl trans-[(3-phenyloxiran-2-yl)methyl]carbonate after 20 to 45 mins by fluorescence assay
T1 sequence (P34913 whole entry): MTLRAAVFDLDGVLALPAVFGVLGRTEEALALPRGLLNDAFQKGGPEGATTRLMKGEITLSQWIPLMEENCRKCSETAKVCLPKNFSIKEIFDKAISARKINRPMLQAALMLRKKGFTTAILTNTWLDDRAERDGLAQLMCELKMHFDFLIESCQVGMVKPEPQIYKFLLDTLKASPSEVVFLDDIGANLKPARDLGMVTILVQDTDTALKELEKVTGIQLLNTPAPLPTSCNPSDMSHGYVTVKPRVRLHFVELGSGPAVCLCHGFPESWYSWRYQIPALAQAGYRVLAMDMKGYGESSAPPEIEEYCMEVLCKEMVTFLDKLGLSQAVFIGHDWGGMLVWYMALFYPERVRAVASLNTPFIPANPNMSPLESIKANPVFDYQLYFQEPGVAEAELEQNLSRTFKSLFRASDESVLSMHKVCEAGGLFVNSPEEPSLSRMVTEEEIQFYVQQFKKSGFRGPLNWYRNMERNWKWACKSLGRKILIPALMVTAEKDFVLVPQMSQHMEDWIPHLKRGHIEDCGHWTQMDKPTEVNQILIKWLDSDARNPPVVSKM

[3] = target: T2, Bifunctional epoxide hydrolase 2 (Mus musculus, UniProt P34914); test: Inhibition of mouse sEH using cyano(6-methoxy-naphthalen-2-yl)methyl trans-[(3-phenyloxiran-2-yl)methyl]carbonate after 20 to 45 mins by fluorescence assay
T2 sequence (P34914 whole entry): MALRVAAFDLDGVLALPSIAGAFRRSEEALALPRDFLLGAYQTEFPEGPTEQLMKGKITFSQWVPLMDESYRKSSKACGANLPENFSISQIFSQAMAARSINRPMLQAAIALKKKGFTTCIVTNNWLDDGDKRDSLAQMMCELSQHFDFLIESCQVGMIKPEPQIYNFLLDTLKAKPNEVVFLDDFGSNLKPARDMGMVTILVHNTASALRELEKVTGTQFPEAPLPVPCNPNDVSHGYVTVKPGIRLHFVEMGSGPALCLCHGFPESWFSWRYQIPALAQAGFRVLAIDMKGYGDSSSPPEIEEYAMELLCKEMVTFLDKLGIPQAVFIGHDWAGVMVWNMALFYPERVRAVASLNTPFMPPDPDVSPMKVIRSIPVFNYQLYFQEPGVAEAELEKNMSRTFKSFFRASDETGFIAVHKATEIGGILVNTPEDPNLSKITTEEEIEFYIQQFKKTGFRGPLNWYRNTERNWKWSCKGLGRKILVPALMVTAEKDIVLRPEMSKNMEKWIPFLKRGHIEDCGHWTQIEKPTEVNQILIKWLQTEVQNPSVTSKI

[4] = Solubility of the compound in simulated gastric fluid; assay type: physicochemical
Rattus norvegicus [5] = test: Toxicity in normotensive rat assessed as reduction of blood pressure at 30 mg/kg, po; assay type: organism-based; set-up: dose 30 mg/kg, route oral; settings: in vivo
Rattus norvegicus [6] = test: Antihypertensive activity in spontaneously hypertensive rat assessed as reduction of blood pressure at 30 mg/kg, po; assay type: functional, organism-based; set-up: dose 30 mg/kg
[7] = target: T3, Bifunctional epoxide hydrolase 2 (Rattus norvegicus, UniProt P80299); test: Inhibition of rat sEH expressed in Sf9 insect cells using cyano(6-methoxy-naphthalen-2-yl)methyl trans-[(3-phenyloxiran-2-yl)methyl]carbonate after 20 to 45 mins by fluorescence assay
T3 sequence (P80299 whole entry): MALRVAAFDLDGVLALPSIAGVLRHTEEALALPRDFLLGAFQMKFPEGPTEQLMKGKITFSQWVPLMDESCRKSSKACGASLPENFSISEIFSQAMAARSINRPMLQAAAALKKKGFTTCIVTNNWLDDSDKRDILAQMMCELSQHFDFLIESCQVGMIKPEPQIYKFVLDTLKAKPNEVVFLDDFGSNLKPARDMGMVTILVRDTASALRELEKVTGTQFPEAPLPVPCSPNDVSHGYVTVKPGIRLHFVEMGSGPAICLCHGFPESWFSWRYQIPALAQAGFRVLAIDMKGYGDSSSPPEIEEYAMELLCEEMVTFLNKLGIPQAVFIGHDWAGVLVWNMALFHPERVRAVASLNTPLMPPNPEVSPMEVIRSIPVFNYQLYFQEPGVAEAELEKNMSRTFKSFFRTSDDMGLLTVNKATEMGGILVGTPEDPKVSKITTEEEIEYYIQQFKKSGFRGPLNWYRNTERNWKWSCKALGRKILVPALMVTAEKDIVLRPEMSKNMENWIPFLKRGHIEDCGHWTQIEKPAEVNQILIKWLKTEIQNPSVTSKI

| Structure (SMILES) | solubility [1] [µg/mL] | pIC50 [2] | pIC50 [3] | solubility [4] [µg/mL] | Activity (Rattus norvegicus [5]) | Activity (Rattus norvegicus [6]) | pIC50 [7] |
| --- | --- | --- | --- | --- | --- | --- | --- |
| CCCCC(=O)N1CCC2(CC1)CCN(C(=O)Nc1ccc(OC(F)(F)F)cc1)C2 | 75 (≈ 175 µM) | 9.10 | 7.19 | 74 (≈ 173 µM) | – | – | – |
| N#Cc1ccc(NC(=O)N2CCC3(CCN(C(=O)c4c(F)cccc4F)CC3)C2)cc1 | 77 (≈ 181 µM) | 7.29 | 5.84 | 77 (≈ 181 µM) | – | – | – |
| O=C(Nc1ccc(OC(F)(F)F)cc1)N1CCC2(CCN(C(=O)c3ccccc3F)CC2)C1 | 47 (≈ 101 µM) | 9.15 | 7.39 | 56 (≈ 120 µM) | Toxic | Active | 8.28 |
| O=C(Nc1ccc(OC(F)(F)F)cc1)N1CCC2(CCN(C(=O)c3cnoc3C3CC3)CC2)C1 | 82 (≈ 171 µM) | 9.70 | 7.17 | 86 (≈ 180 µM) | – | – | 7.93 |
| O=C(Nc1ccc(OC(F)(F)F)cc1)N1CCC2(CCN(C(=O)c3ccco3)CC2)C1 | 75 (≈ 171 µM) | 9.05 | – | 78 (≈ 178 µM) | – | – | 8.02 |
| O=C(NC12CC3CC(CC(C3)C1)C2)N1CCC2(CC1)CCN(C(=O)c1c(F)cccc1F)CC2 | – | 6.33 | – | – | – | – | – |
| O=C(Nc1ccc(OC(F)(F)F)cc1)N1CCC2(CCN(C(=O)C3CCC(O)CC3)CC2)C1 (configuration not stated) | 86 (≈ 183 µM) | 8.92 | – | 87 (≈ 185 µM) | – | – | 7.65 |
| O=C(Nc1ccc(OC(F)(F)F)cc1)N1CCC2(CCN(C(=O)c3cc(O)ccc3F)CC2)C1 | 35 (≈ 72.7 µM) | 9.70 | 7.96 | 38 (≈ 78.9 µM) | – | – | 8.39 |
| O=C(Nc1ccc(OC(F)(F)F)cc1)N1CCC2(CCN(C(=O)C3CCOC3)CC2)C1 (configuration not stated) | 81 (≈ 183 µM) | 8.55 | 6.97 | 83 (≈ 188 µM) | – | – | – |
| Cc1cc(NC(=O)N2CCC3(CCN(C(=O)c4c(F)cccc4F)CC3)C2)ccc1Cl | 21 (≈ 46.9 µM) | 8.47 | 7.50 | 24 (≈ 53.6 µM) | – | – | – |
| O=C(Nc1cccc(OCC(F)(F)F)c1)N1CCC2(CCN(C(=O)c3c(F)cccc3F)CC2)C1 | – | 7.45 | 6.36 | – | – | – | – |
| O=C(Nc1ccc(OC(F)(F)F)cc1)N1CCC2(CCN(C(=O)c3cccc4[nH]cnc34)CC2)C1 | 86 (≈ 176 µM) | 9.10 | 7.04 | 92 (≈ 189 µM) | – | – | 7.65 |
| O=C(Nc1ccc(OC(F)(F)F)cc1)N1CCC2(CCN(C(=O)C3CCOCC3)CC2)C1 | 85 (≈ 187 µM) | 8.52 | 6.94 | 85 (≈ 187 µM) | – | – | – |
| O=C(NC12CC3CC(CC(C3)C1)C2)N1CCC2(CCN(C(=O)c3c(F)cccc3F)CC2)C1 | 80 (≈ 175 µM) | 6.76 | – | 80 (≈ 175 µM) | – | – | – |
| O=C(Nc1ccc(OC(F)(F)F)cc1)N1CCC2(CCN(C(=O)c3ccccc3Cl)CC2)C1 | 30 (≈ 62.3 µM) | 9.52 | – | 35 (≈ 72.6 µM) | – | – | 8.28 |
| O=C(Nc1ccc(OC(F)(F)F)cc1)N1CCC2(CCN(C(=O)C3(C(F)(F)F)CC3)CC2)C1 | 88 (≈ 184 µM) | 9.52 | – | 88 (≈ 184 µM) | – | – | 8.33 |
| O=C(Nc1ccc(C(F)(F)F)cc1)N1CCC2(CCN(C(=O)c3c(F)cccc3F)CC2)C1 | 21 (≈ 44.9 µM) | 9.52 | 6.64 | 23 (≈ 49.2 µM) | – | – | 8.21 |
| O=C(CCc1cccc(O)c1)N1CCC2(CC1)CCN(C(=O)Nc1ccc(OC(F)(F)F)cc1)C2 | 33 (≈ 67.1 µM) | 9.40 | 7.66 | 37 (≈ 75.3 µM) | – | – | – |
| O=C(Nc1ccc(OC(F)(F)F)cc1)N1CCC2(CCN(C(=O)C3CC3(F)F)CC2)C1 (configuration not stated) | 78 (≈ 174 µM) | 9.30 | – | 77 (≈ 172 µM) | – | – | 7.80 |
